Data published in PubChem BioAssay (NCI).
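At the GI50, growth is halved. TGI: total growth inhibition.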

Assays:
Assay in all cases: NCI anticancer screen, dose series, 384-well format
PC-3 prostate = tested on: PC-3 prostate
HT29 colon = tested on: HT29 colon
SNB-75 CNS = tested on: SNB-75 CNS
U251 glioblastoma = tested on: U251 glioblastoma
RXF 393 renal = tested on: RXF 393 renal
NCI-H522 lung = tested on: NCI-H522 lung
NCI-H322M lung = tested on: NCI-H322M lung
NCI-H460 NSCLC = tested on: NCI-H460 NSCLC
K-562 leukemia = tested on: K-562 leukemia
OVCAR-8 ovarian = tested on: OVCAR-8 ovarian
SR leukemia = tested on: SR leukemia
BT-549 breast = tested on: BT-549 breast
786-0 renal = tested on: 786-0 renal
SK-MEL-28 melanoma = tested on: SK-MEL-28 melanoma
UO-31 renal = tested on: UO-31 renal
OVCAR-4 ovarian = tested on: OVCAR-4 ovarian
MOLT-4 leukemia = tested on: MOLT-4 leukemia
SK-OV-3 ovarian = tested on: SK-OV-3 ovarian
SK-MEL-2 melanoma = tested on: SK-MEL-2 melanoma
COLO 205 colon = tested on: COLO 205 colon
SF-295 CNS = tested on: SF-295 CNS
DU-145 prostate = tested on: DU-145 prostate
HCT-15 colon = tested on: HCT-15 colon
SNB-19 CNS = tested on: SNB-19 CNS
MCF7 breast = tested on: MCF7 breast
OVCAR-5 ovarian = tested on: OVCAR-5 ovarian
HCT-116 colon = tested on: HCT-116 colon
IGROV1 ovarian = tested on: IGROV1 ovarian
TK-10 renal = tested on: TK-10 renal
HOP-62 NSCLC = tested on: HOP-62 NSCLC
NCI-H226 lung = tested on: NCI-H226 lung
OVCAR-3 ovarian = tested on: OVCAR-3 ovarian
EKVX NSCLC = tested on: EKVX NSCLC
NCI-H23 lung = tested on: NCI-H23 lung
A498 renal = tested on: A498 renal
HL-60(TB) leukemia = tested on: HL-60(TB) leukemia
HS 578T breast = tested on: HS 578T breast
SK-MEL-5 melanoma = tested on: SK-MEL-5 melanoma
CAKI-1 renal = tested on: CAKI-1 renal
UACC-257 melanoma = tested on: UACC-257 melanoma
T-47D breast = tested on: T-47D breast
M14 melanoma = tested on: M14 melanoma
MDA-MB-435 melanoma = tested on: MDA-MB-435 melanoma
ACHN renal = tested on: ACHN renal
A549 NSCLC = tested on: A549 NSCLC
UACC-62 melanoma = tested on: UACC-62 melanoma
HOP-92 NSCLC = tested on: HOP-92 NSCLC
MDA-MB-231 breast = tested on: MDA-MB-231 breast
SW-620 colon = tested on: SW-620 colon
SF-268 CNS = tested on: SF-268 CNS
MDA-MB-468 breast = tested on: MDA-MB-468 breast
SN12C renal = tested on: SN12C renal
MALME-3M melanoma = tested on: MALME-3M melanoma
KM12 colon = tested on: KM12 colon
SF-539 CNS = tested on: SF-539 CNS

N#Cc1ncc(N2C(=O)C3(CCC3)N(c3ccc(OC4CCNCC4)nc3)C2=S)cc1C(F)(F)F
GI50 (PC-3 prostate): 14.4 µM | TGI (PC-3 prostate): 27.5 µM | GI50 (HT29 colon): 2880 nM | TGI (HT29 colon): 8.52 µM | GI50 (SNB-75 CNS): 14.5 µM | TGI (SNB-75 CNS): 27.7 µM | GI50 (U251 glioblastoma): 17.2 µM | TGI (U251 glioblastoma): 31 µM | GI50 (RXF 393 renal): 2630 nM | TGI (RXF 393 renal): 7.32 µM | GI50 (NCI-H522 lung): 17.5 µM | TGI (NCI-H522 lung): 31.3 µM | GI50 (NCI-H322M lung): 17.9 µM | TGI (NCI-H322M lung): 32.5 µM | GI50 (NCI-H460 NSCLC): 11.2 µM | TGI (NCI-H460 NSCLC): 23.4 µM | GI50 (K-562 leukemia): 4.27 µM | TGI (K-562 leukemia): 16.1 µM | GI50 (OVCAR-8 ovarian): 14.5 µM | TGI (OVCAR-8 ovarian): 27.7 µM | GI50 (SR leukemia): 1900 nM | TGI (SR leukemia): 3.91 µM | GI50 (BT-549 breast): 11.1 µM | TGI (BT-549 breast): 23.1 µM | GI50 ([…]-0 renal): 12 µM | TGI (786-0 renal): 24.4 µM | GI50 (SK-MEL-28 melanoma): 2320 nM | TGI (SK-MEL-28 melanoma): 5.21 µM | GI50 (UO-31 renal): 14.7 µM | TGI (UO-31 renal): 27.9 µM | GI50 (OVCAR-4 ovarian): 13.6 µM | TGI (OVCAR-4 ovarian): 26.5 µM | GI50 (MOLT-4 leukemia): 10.1 µM | TGI (MOLT-4 leukemia): 21.7 µM | GI50 (SK-OV-3 ovarian): 18.1 µM | TGI (SK-OV-3 ovarian): 32.2 µM | GI50 (SK-MEL-2 melanoma): 5.98 µM | TGI (SK-MEL-2 melanoma): 17.9 µM | GI50 (COLO 205 colon): 15.1 µM | TGI (COLO 205 colon): 28.4 µM | GI50 (SF-295 CNS): 18.6 µM | TGI (SF-295 CNS): 32.6 µM | GI50 (DU-145 prostate): 14.5 µM | TGI (DU-145 prostate): 27.9 µM | GI50 (HCT-15 colon): 5.19 µM | TGI (HCT-15 colon): 16.6 µM | GI50 (SNB-19 CNS): 19.1 µM | TGI (SNB-19 CNS): 35.3 µM | GI50 (MCF7 breast): 4.76 µM | TGI (MCF7 breast): 16.6 µM | GI50 (OVCAR-5 ovarian): 13.8 µM | TGI (OVCAR-5 ovarian): 27 µM | GI50 (HCT-116 colon): 8.22 µM | TGI (HCT-116 colon): 20.7 µM | GI50 (IGROV1 ovarian): 14.4 µM | TGI (IGROV1 ovarian): 27.7 µM | GI50 (TK-10 renal): 7.64 µM | TGI (TK-10 renal): 20.1 µM | GI50 (HOP-62 NSCLC): 20.9 µM | TGI (HOP-62 NSCLC): 35.3 µM | GI50 (NCI-H226 lung): 8.62 µM | TGI (NCI-H226 lung): 20.7 µM | GI50 (OVCAR-3 ovarian): 14 µM | TGI (OVCAR-3 ovarian): 27.1 µM | GI50 (EKVX NSCLC): 10.2 µM | TGI (EKVX NSCLC): 22 µM | GI50 (NCI-H23 lung): 11 µM | TGI (NCI-H23 lung): 23 µM | GI50 (A498 renal): 10.8 µM | TGI (A498 renal): 22.7 µM | GI50 (HL-60(TB) leukemia): 3.75 µM | TGI (HL-60(TB) leukemia): 15.8 µM | GI50 (HS 578T breast): 11.5 µM | TGI (HS 578T breast): 23.6 µM | GI50 (SK-MEL-5 melanoma): 11.8 µM | TGI (SK-MEL-5 melanoma): 24.1 µM | GI50 (CAKI-1 renal): 5.96 µM | TGI (CAKI-1 renal): 18.3 µM | GI50 (UACC-257 melanoma): 1990 nM | TGI (UACC-257 melanoma): 3.79 µM | GI50 (T-47D breast): 8.96 µM | TGI (T-47D breast): 21.1 µM | GI50 (M14 melanoma): 3 µM | TGI (M14 melanoma): 8.44 µM | GI50 (MDA-MB-435 melanoma): 13.4 µM | TGI (MDA-MB-435 melanoma): 26.3 µM | GI50 (ACHN renal): 15.3 µM | TGI (ACHN renal): 28.7 µM | GI50 (A549 NSCLC): 16.7 µM | TGI (A549 NSCLC): 30.5 µM | GI50 (UACC-62 melanoma): 2030 nM | TGI (UACC-62 melanoma): 3.93 µM | GI50 (HOP-92 NSCLC): 12.7 µM | TGI (HOP-92 NSCLC): 25.4 µM | GI50 (MDA-MB-231 breast): 16.1 µM | TGI (MDA-MB-231 breast): 29.6 µM | GI50 (SW-620 colon): 14.5 µM | TGI (SW-620 colon): 27.8 µM | GI50 (SF-268 CNS): 13.4 µM | TGI (SF-268 CNS): 26.3 µM | GI50 (MDA-MB-468 breast): 10.6 µM | TGI (MDA-MB-468 breast): 22.4 µM | GI50 (SN12C renal): 15.5 µM | TGI (SN12C renal): 28.9 µM | GI50 (MALME-3M melanoma): 2680 nM | TGI (MALME-3M melanoma): 6.23 µM | GI50 (KM12 colon): 17.1 µM | TGI (KM12 colon): 30.9 µM | GI50 (SF-539 CNS): 12.4 µM | TGI (SF-539 CNS): 24.9 µM
